Data taken from PubChem BioAssay (NCI).
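Step 1: Grow cells in 96-well plates. Step 2: Expose to compound for 48 hours at 5 concentrations. Step 3: Interpolate endpoints linearly; if unreached, use highest concentration. TGI denotes the concentration required for complete inhibition of growth.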

Legend:
Experiment in all cases: NCI tumour cell line growth inhibition, 48 h
786-0 renal = test system: 786-0 renal
A498 renal = test system: A498 renal
A549 NSCLC = test system: A549 NSCLC
ACHN renal = test system: ACHN renal
BT-549 breast = test system: BT-549 breast
CAKI-1 renal = test system: CAKI-1 renal
CCRF-CEM leukemia = test system: CCRF-CEM leukemia
COLO 205 colon = test system: COLO 205 colon
DU-145 prostate = test system: DU-145 prostate
EKVX NSCLC = test system: EKVX NSCLC
HCC-2998 colon = test system: HCC-2998 colon
HCT-116 colon = test system: HCT-116 colon
HCT-15 colon = test system: HCT-15 colon
HL-60(TB) leukemia = test system: HL-60(TB) leukemia
HOP-62 NSCLC = test system: HOP-62 NSCLC
HOP-92 NSCLC = test system: HOP-92 NSCLC
HS 578T breast = test system: HS 578T breast
HT29 colon = test system: HT29 colon
IGROV1 ovarian = test system: IGROV1 ovarian
K-562 leukemia = test system: K-562 leukemia
KM12 colon = test system: KM12 colon
LOX IMVI melanoma = test system: LOX IMVI melanoma
M14 melanoma = test system: M14 melanoma
MALME-3M melanoma = test system: MALME-3M melanoma
MCF7 breast = test system: MCF7 breast
MDA-MB-231 breast = test system: MDA-MB-231 breast
MDA-MB-435 = test system: MDA-MB-435
MDA-N = test system: MDA-N
MOLT-4 leukemia = test system: MOLT-4 leukemia
NCI-H226 lung = test system: NCI-H226 lung
NCI-H23 lung = test system: NCI-H23 lung
NCI-H460 lung = test system: NCI-H460 lung
NCI-H522 lung = test system: NCI-H522 lung
NCI/ADR-RES ovarian = test system: NCI/ADR-RES ovarian
OVCAR-3 ovarian = test system: OVCAR-3 ovarian
OVCAR-4 ovarian = test system: OVCAR-4 ovarian
OVCAR-5 ovarian = test system: OVCAR-5 ovarian
OVCAR-8 ovarian = test system: OVCAR-8 ovarian
PC-3 prostate = test system: PC-3 prostate
RPMI-8226 leukemia = test system: RPMI-8226 leukemia
RXF 393 renal = test system: RXF 393 renal
SF-268 CNS = test system: SF-268 CNS
SF-295 CNS = test system: SF-295 CNS
SF-539 CNS = test system: SF-539 CNS
SK-MEL-2 melanoma = test system: SK-MEL-2 melanoma
SK-MEL-28 melanoma = test system: SK-MEL-28 melanoma
SK-MEL-5 melanoma = test system: SK-MEL-5 melanoma
SK-OV-3 ovarian = test system: SK-OV-3 ovarian
SN12C renal = test system: SN12C renal
SNB-19 CNS = test system: SNB-19 CNS
SNB-75 CNS = test system: SNB-75 CNS
SR leukemia = test system: SR leukemia
SW-620 colon = test system: SW-620 colon
T-47D breast = test system: T-47D breast
TK-10 renal = test system: TK-10 renal
U251 CNS = test system: U251 CNS
UACC-257 melanoma = test system: UACC-257 melanoma
UACC-62 melanoma = test system: UACC-62 melanoma
UO-31 renal = test system: UO-31 renal

C/C(=C\COc1ccc2ccc(=O)oc2c1)CCC(=O)C(C)(C)O
TGI (786-0 renal): 43.3 µM | TGI (A498 renal): 64.2 µM | TGI (A549 NSCLC): > 100 µM | TGI (ACHN renal): > 100 µM | TGI (BT-549 breast): 74.9 µM | TGI (CAKI-1 renal): > 100 µM | TGI (CCRF-CEM leukemia): 46.7 µM | TGI (COLO 205 colon): 44.4 µM | TGI (DU-145 prostate): > 100 µM | TGI (EKVX NSCLC): > 100 µM | TGI (HCC-2998 colon): 38.4 µM | TGI (HCT-116 colon): 32.2 µM | TGI (HCT-15 colon): 51.1 µM | TGI (HL-60(TB) leukemia): 45.7 µM | TGI (HOP-62 NSCLC): > 100 µM | TGI (HOP-92 NSCLC): 64.5 µM | TGI (HS 578T breast): 78.2 µM | TGI (HT29 colon): 52.7 µM | TGI (IGROV1 ovarian): > 100 µM | TGI (K-562 leukemia): 46.8 µM | TGI (KM12 colon): 41 µM | TGI (LOX IMVI melanoma): 32.8 µM | TGI (M14 melanoma): 61.2 µM | TGI (MALME-3M melanoma): > 100 µM | TGI (MCF7 breast): 40.6 µM | TGI (MDA-MB-231 breast): > 100 µM | TGI (MDA-MB-435): 59.2 µM | TGI (MDA-N): > 100 µM | TGI (MOLT-4 leukemia): 67.5 µM | TGI (NCI-H226 lung): 69.7 µM | TGI (NCI-H23 lung): > 100 µM | TGI (NCI-H460 lung): > 100 µM | TGI (NCI-H522 lung): 43.6 µM | TGI (NCI/ADR-RES ovarian): > 100 µM | TGI (OVCAR-3 ovarian): 46.4 µM | TGI (OVCAR-4 ovarian): > 100 µM | TGI (OVCAR-5 ovarian): > 100 µM | TGI (OVCAR-8 ovarian): 76.3 µM | TGI (PC-3 prostate): > 100 µM | TGI (RPMI-8226 leukemia): 50 µM | TGI (RXF 393 renal): 39.9 µM | TGI (SF-268 CNS): > 100 µM | TGI (SF-295 CNS): > 100 µM | TGI (SF-539 CNS): 48.5 µM | TGI (SK-MEL-2 melanoma): > 100 µM | TGI (SK-MEL-28 melanoma): > 100 µM | TGI (SK-MEL-5 melanoma): 30.2 µM | TGI (SK-OV-3 ovarian): 99.4 µM | TGI (SN12C renal): 58.4 µM | TGI (SNB-19 CNS): > 100 µM | TGI (SNB-75 CNS): > 100 µM | TGI (SR leukemia): 47.4 µM | TGI (SW-620 colon): 38.9 µM | TGI (T-47D breast): > 100 µM | TGI (TK-10 renal): > 100 µM | TGI (U251 CNS): 47.4 µM | TGI (UACC-257 melanoma): > 100 µM | TGI (UACC-62 melanoma): 37.1 µM | TGI (UO-31 renal): 91.9 µM
